Where two headings read alike, the source gives them in different places.
Key:
[1] = tested on: Susceptible Musca domestica; test: Glass jar contact bioassay, susceptible (laboratory) house flies; conditions: for decline in toxicity after a 24-hour holding period subsequent to an initial 2-hour exposure: 2 h transferred vs 2 h constant
Method: Briefly, adult house flies, Musca domestica, are obtained from strains that have been reared in the laboratory of the Entomology and Nematology Department, University of Florida. […] The positive control is exposed to serial dilutions of permethrin. The negative control is not exposed to any chemical compound. The mortality rate is measured after 2-hour, 4-hour, and 24-hour periods. Ataxic flies are considered dead.
(§1) The ability of house flies to recover from insecticidal exposure is also investigated. After a 2-hour exposure, each set of flies is transferred into a separate glass jar. The mortality rate is measured at two time intervals: first, immediately at the transfer (2 hours after the initial exposure), and second, 22 hours after the transfer (24 hours after the initial exposure).
The mortality rate is analyzed using the PROBIT model. The data is adjusted based on the mortality rate in the control set using the Abbott's transformation, and the percent mortality is further analyzed based on ANOVA measurement. The experiment is repeated at least three times. The data is discarded if the mortality rate in the control set exceeds 10%. The LC50 and LC90 values are further determined using the SAS (Cary, N.C., USA) statistical software. For each chemical compound, at least 1280 flies are examined.

Aedes aegypti [2] = conditions: for LC50: On camouflage military fabric
Method: The mortality rate is measured after a 2-hour, 4-hour and 24-hour exposure period. Ataxic mosquitoes are considered dead.
as §1, with “Ae. aegypti” for “house flies”, “Ae. aegypti” for “flies”, “separate” for “separate glass”
The mortality rate and the LC values are determined using the same procedures as is illustrated in Example 2.

[3] = tested on: Susceptible Musca domestica; conditions: for % mortality on various days following treatment: formulation on filter paper at LC99-based concentration of each compound
Method: Briefly, after Musca domestica is exposed to formulations for 24 hours at the LC99 concentration specific for each compound, each set of flies is transferred into a separate glass jar, and held for another 24 hours when mortality is scored. The mortality rate is measured on multiple days with new sets of flies up to 14 days (Day 1 starts at 24 hours after the transfer). The mortality rate is determined using the same procedures as is illustrated in Example 2.
Concentrations were generated from technical-based LC99 values obtained following a 24 h-exposure period on filter paper. Paper was treated on day 0 and was held until exposure on post-treatment day. Control contained formulation ingredients without semiochemicals.

Aedes aegypti [4] = conditions: EC formulation on military fabric
Method: A commercially-available permethrin 57 g L^−1 EC (Ectiban EC 57; Universal Cooperatives, Minneapolis, Minn.) was included for comparison. Except rosalva, the 50% EC semiochemical formulations were generated by combining 500 mL AI, 430 mL canola oil (Publix, Lakeland, Fla.), 10 mL xylene, 50 mL Triton X-100 (Acros Organics Nev., Fair Lawn, N.J.) and 10 mL Agsolex-8 (International Specialty Products, Wayne, N.J.). The rosalva formulation contained all of the above-mentioned ingredients, with canola oil concentration reduced to 400 mL L^−1, Triton X-100 concentration increased to 75 mL L^−1, and 5 mL L^−1 Antifoam B silicone emulsion (Mallinckrodt Baker, Phillipsburg, N.Y.) included.
Briefly, a piece of 10×10 cm^2 fabric (TenCate Defender™) is impregnated with 2 ml of serially diluted 20-emulsifiable concentrate or 50-emulsifiable concentrate formulations, respectively, and subsequently dried for about an hour. Also, six-to-ten-day-old, never blood-fed, adult female Ae. aegypti mosquitoes are obtained. The mosquitoes are divided into seven sets: three sets as the experiment, three sets as the positive control, and one set as the negative control. Each set consists of 20 mosquitoes. […] The positive control set is exposed to fabric pieces treated with geranyl acetone, rosalva or citronellol. The negative control set is exposed to fabric pieces treated with acetone solution. Throughout the exposure periods, each set is provided with 10% sucrose solution and sufficient air circulation. Ataxic mosquitoes are considered dead. The mortality rate and the LC values are determined using the same procedures as are illustrated in Example 2.

Aedes aegypti [5] = conditions: for % mortality on various days following treatment: formulation on military fabric at LC99-based concentration, 2 h exposure, mortality 24 h after initial exposure
Method: Briefly, after mosquitoes are exposed to formulations for 2 hours at a concentration of LC99, each set is transferred into a separate glass jar, and held for another 24 hours. The mortality rate is measured with new mosquitoes on post-treatment days 2, 3, 5, 8 and 14 (Day 1 starts at 24 hours after the transfer), and is determined using the same procedures as are illustrated in Example 2.
Concentrations were generated from technical-based LC99 values obtained from a 2 h exposure period on military fabric. Fabric was treated on day 0 and was held until exposure on post-treatment day. Mosquitoes were exposed for 2 h, and mortality rate was assessed 24 h after initial exposure. Control contained formulation ingredients without semiochemicals.

[6] = tested on: Field-collected Musca domestica; conditions: for % mortality: formulation on plywood panels, 3.33 mg/cm^2 (footnote 1.67)
Method: Briefly, one Musca domestica strain and one other Musca domestica strain are obtained as is illustrated in Example 3. Each fly strain is divided into seven sets: three sets as the experiment, three sets as the positive control, and one set as the negative control. Flies are assayed on unpainted plywood panel boards that have been previously exposed to natural summer weather conditions for at least 10 days. […] The formulation is applied at a uniform rate of 7.5 ml per 225 cm^2, sufficient to cover the entire panel without dripping. Subsequently, the treated panel boards are dried for about an hour.
In each set, 20 adult flies are placed onto panel boards. Flies are secured with wooden embroidery hoops, covered with a coarse mesh screen cloth previously sprayed with the respective formulation. After 4 hours, flies are transferred into a clean jar. The mortality rate is measured 24 hours after the transfer, and is determined using the same procedures as are illustrated in Example 2.
Plywood panels (225 cm^2) were treated with chemicals at a rate of 1.67 mg cm^−2. Panels were treated on day 0 and was held until exposure on post-treatment day. Mosquitoes were exposed to chemicals for 2 h, and mortality rate was assessed 24 h after initial exposure. Control contained formulation ingredients without semiochemicals.

[7] = tested on: honey bees, Apis mellifera; test: Olfactory response assay in MEDUSA olfactometer, honey bee behaviors; type: in vivo; conditions: 0.25 mg semiochemical on perfumery strips; F7.72=0.705, p=0.67; data not shown
[8] = 2 h constant exposure, glass jar
[9] = 2 h exposure, transferred to clean jars, mortality 24 h after initial exposure
[10] = 4 h constant exposure, glass jar

## C/C=C/C(=O)C1=C(C)CCCC1(C)C [Beta damascone, beta damascone]
[1]; [8]
  LC90: 78.46 μg cm^−2
[1]; [9]
  LC90: 74.63 μg cm^−2
[1]
  decline in toxicity after a 24-hour holding period subsequent to an initial 2-hour exposure: no decline in toxicity
[1]; [10]
  LC90: 53.59 μg cm^−2
[1]; in vivo
  mortality rate: ~100%
Aedes aegypti [2]; in vivo
  mortality rate: ~100%
[3]; in vivo
  mortality rate: 99%
Aedes aegypti [4]; exposure period 2 hours
  LC90: 910.52 μg cm^−2
Aedes aegypti [4]; exposure period 4 hours
  LC90: 648.16 μg cm^−2
Aedes aegypti [4]; exposure period 24 hours
  LC90: 534.26 μg cm^−2
Aedes aegypti [5]; in vivo
  mortality rate: above 90%
[6]; in vivo
  mortality rate: 95.0-100.0%
[7]
  attraction or repellence of honey bees (contact seconds per hour): do not attract or repel honey bees

## CC1(C)CCCC2=C1CC(C=O)CC2 (stereo not drawn) [Cyclemone A, 2-naphthaldehyde, 1,2,3,4,5,6,7,8-octahydro-8,8-dimethyl]
[1]; [8]
  LC50: 48.24 μg cm^−2
  LC90: 69.90 μg cm^−2
[1]; [9]
  LC50: 47.29 μg cm^−2
  LC90: 68.95 μg cm^−2
[1]
  decline in toxicity after a 24-hour holding period subsequent to an initial 2-hour exposure: no decline in toxicity
[1]; [10]
  LC50: 44.52 μg cm^−2
  LC90: 71.44 μg cm^−2
[1]; after 24-hour exposure
  mortality rate: ~100%
Aedes aegypti [2]; 2 h constant exposure
  LC50: 26.03 μg cm^−2
Aedes aegypti [2]; 2 h exposure then transferred, mortality 24 h after initial exposure
  LC50: 41.13 μg cm^−2
Aedes aegypti [2]; 4 h constant exposure
  LC50: 17.23 μg cm^−2
Aedes aegypti [2]; camouflage military fabric, after a 24-hour exposure
  mortality rate: ~100%
[3]; Day 1 and Day 2
  mortality rate: 99%
[3]; day 1
  % mortality on various days following treatment: 96.25a %
[3]; day 2
  % mortality on various days following treatment: 90.00a %
[3]; day 3
  % mortality on various days following treatment: 80.00a %
[3]; day 5
  % mortality on various days following treatment: 77.50ab %
[3]; day 7
  % mortality on various days following treatment: 78.75a %
[3]; day 8
  % mortality on various days following treatment: 63.75a %
[3]; day 14
  % mortality on various days following treatment: 6.25ab %
Aedes aegypti [4]; exposure period 2 hours
  LC50: 180.23 μg cm^−2
  LC90: 452.11 μg cm^−2
Aedes aegypti [4]; exposure period 4 hours
  LC50: 172.56 μg cm^−2
  LC90: 488.13 μg cm^−2
Aedes aegypti [4]; exposure period 24 hours
  LC50: 136.19 μg cm^−2
  LC90: 330.22 μg cm^−2
Aedes aegypti [5]; day 1
  % mortality on various days following treatment: 100.00a %
Aedes aegypti [5]; day 2
  % mortality on various days following treatment: 97.50a %
Aedes aegypti [5]; day 3
  % mortality on various days following treatment: 92.50a %
Aedes aegypti [5]; day 5
  % mortality on various days following treatment: 75.00a %
Aedes aegypti [5]; day 8
  % mortality on various days following treatment: 25.50ab %
Aedes aegypti [5]; day 14
  % mortality on various days following treatment: 17.50a %
[6]; Alachua strain
  % mortality: 100.00a %
[6]; Gilchrist strain
  % mortality: 95.00a %
[7]
  attraction or repellence of honey bees (contact seconds per hour): do not attract or repel honey bees
